Structures can show the parent of a compound that is named as a salt. Where two headings read alike, the source gives them in different places.
Assays:
human MAO A = biological target: T1, human MAO A (Homo sapiens, UniProt P21397); assay: Anti-MAO assay; type: biochemical; conditions: for % inhibition at 100 μM MAO A: NI = no inhibition; for inhibition at 100 µM: read-out: % inhibition at 100 μM MAO A
T1 sequence (P21397 1-527): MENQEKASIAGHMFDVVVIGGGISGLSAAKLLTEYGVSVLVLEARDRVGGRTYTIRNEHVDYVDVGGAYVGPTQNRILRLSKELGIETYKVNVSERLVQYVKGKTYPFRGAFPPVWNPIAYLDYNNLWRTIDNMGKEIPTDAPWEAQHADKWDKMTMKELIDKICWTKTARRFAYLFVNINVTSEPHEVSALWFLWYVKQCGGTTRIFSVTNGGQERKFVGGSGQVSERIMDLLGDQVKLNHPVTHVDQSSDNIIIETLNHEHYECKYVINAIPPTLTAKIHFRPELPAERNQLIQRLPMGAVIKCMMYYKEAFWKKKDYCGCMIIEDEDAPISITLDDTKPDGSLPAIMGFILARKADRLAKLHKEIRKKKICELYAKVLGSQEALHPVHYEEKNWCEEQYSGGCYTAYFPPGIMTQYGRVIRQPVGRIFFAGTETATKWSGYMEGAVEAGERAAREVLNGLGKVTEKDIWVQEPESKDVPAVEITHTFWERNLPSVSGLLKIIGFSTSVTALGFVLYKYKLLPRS

MV4–11 AML cells [1] = conditions: read-out: IC50 MV4–11 (antiproliferative activity), 48 h
NB4 APL cells [2] = conditions: read-out: IC50 NB4 (antiproliferative activity), 48 h
human MAO B [3] = biological target: T2, human MAO B (Homo sapiens, UniProt P27338); assay: Anti-MAO assay; type: biochemical; conditions: read-out: % inhibition at 100 μM MAO B
T2 sequence (P27338 1-520): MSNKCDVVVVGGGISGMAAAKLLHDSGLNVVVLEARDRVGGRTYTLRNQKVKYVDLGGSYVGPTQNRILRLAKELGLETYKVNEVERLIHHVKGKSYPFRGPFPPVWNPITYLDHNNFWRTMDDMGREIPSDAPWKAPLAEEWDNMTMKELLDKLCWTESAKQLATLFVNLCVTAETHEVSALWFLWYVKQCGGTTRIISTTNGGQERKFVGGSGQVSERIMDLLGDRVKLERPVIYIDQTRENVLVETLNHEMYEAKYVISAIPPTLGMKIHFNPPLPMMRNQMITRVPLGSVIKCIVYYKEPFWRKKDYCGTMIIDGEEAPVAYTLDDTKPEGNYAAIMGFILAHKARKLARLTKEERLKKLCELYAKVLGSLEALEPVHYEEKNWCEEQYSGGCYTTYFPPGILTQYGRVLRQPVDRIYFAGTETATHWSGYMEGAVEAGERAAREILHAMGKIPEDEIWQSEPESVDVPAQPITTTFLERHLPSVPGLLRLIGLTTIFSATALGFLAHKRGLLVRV

MV4–11 AML cells [4] = assay: cells; conditions: Homo sapiens, MV4-11, 48 h, read-out: IC50 MV4–11 (antiproliferative activity)
NB4 APL cells [5] = assay: cells; conditions: Homo sapiens, 48 h, read-out: IC50 NB4 (antiproliferative activity)
human MAO B [6] = biological target: T2, human MAO B; conditions: added for comparison, ref [13b], [19]; cited from earlier work
[7] = biological target: human recombinant LSD1/CoREST enzymatic complex (Homo sapiens, UniProt O60341); assay: LSD1 enzyme inhibition assay; type: biochemical
[8] = Microsomal stability in liver microsomes; type: in vitro ADME; conditions: mouse, pH 7.4
[9] = Microsomal stability in liver microsomes; type: in vitro ADME; conditions: human, pH 7.4
[10] = read-out: LSD1, IC50, LSD1/CoREST, 15 min preincubation, NI = no inhibition

Structure (SMILES)	IC50 (MV4–11 AML cells [4])	IC50 (NB4 APL cells [5])	IC50 [7]	IC50 [7, 10]	further results
N[C@@H]1C[C@H]1c1ccccc1 (racemic) [TCP, tranylcypromine, reference compound]	–	–	–	–	% inhibition at 100 μM MAO A (human MAO A): 79%; IC50 (MV4–11 AML cells [1]): > 100 µM; IC50 (NB4 APL cells [2]): > 100 µM
NC1CC1c1ccc(NC(=O)OCc2ccccc2)cc1 (centres unmarked) [1b, benzyl [4-(2-aminocyclopropyl)phenyl]carbamate]	22.4 ± 3.8 µM	25 ± 3.2 µM	–	–	inhibition at 100 µM (human MAO A): 96%; inhibition at 100 µM (human MAO B [3]): 37%
NC1CC1c1ccc(NC(=O)C(Cc2ccccc2)NC(=O)OCc2ccccc2)cc1 (centres unmarked) [2a]	–	–	–	–	% inhibition at 100 μM MAO B (human MAO B [6]): 1%
Cl.NC1CC1c1cccc(NC(=O)C(Cc2ccccc2)NC(=O)OCc2ccccc2)c1 (centres unmarked) [2b, Benzyl (1-((3-(2-aminocyclopropyl)phenyl)amino)-1-oxo-3-phenylpropan-2-yl)carbamate hydrochloride]	24.2 ± 3.1 µM	42.7 ± 5.8 µM	18.1 ± 2.9 µM	–	fold decrease of anti-LSD1 potency relative to 2a [7]: > 120 fold
NC1CC1c1ccc(NC(=O)c2ccc(NC(=O)OCc3ccccc3)cc2)cc1 (centres unmarked) [3a, Benzyl (4-((4-(2-aminocyclopropyl)phenyl)carbamoyl)phenyl)carbamate hydrochloride]	0.4 ± 0.01 µM	0.6 ± 0.02 µM	0.09 ± 0.012 µM	–	inhibition at 100 µM (human MAO A): 37%; inhibition at 100 µM (human MAO B [3]): 8%; microsomal CLint at 1 μM [8]: 7.1 ± 2.2 µL/min/mg; microsomal CLint at 1 μM [9]: 6.7 ± 1.1 µL/min/mg
CN1CCN(c2cc(C(=O)Nc3ccc(C4CC4N)cc3)ccc2NC(=O)OCc2ccccc2)CC1 (centres unmarked) [3c, Benzyl 4-(4-(2-aminocyclopropyl)phenylcarbamoyl)-2-(4-methylpiperazin-1-yl)phenylcarbamate hydrochloride]	2.5 ± 0.1 µM	0.9 ± 0.06 µM	0.089 ± 0.01 µM	–	inhibition at 100 µM (human MAO A): 69%; inhibition at 100 µM (human MAO B [3]): 55%
NC1CC1c1ccc(NC(=O)c2ccc(Oc3ccccc3)c(NC(=O)OCc3ccccc3)c2)cc1 (centres unmarked) [3h, Benzyl (5-((4-(2-aminocyclopropyl)phenyl)carbamoyl)-2-phenoxyphenyl)carbamate hydrochloride]	3.3 ± 0.3 µM	5.4 ± 0.6 µM	0.143 ± 0.028 µM	–	–
NC1CC1c1ccc(NC(=O)c2ccc(Sc3ccccc3)c(NC(=O)OCc3ccccc3)c2)cc1 (centres unmarked) [3i, Benzyl (5-((4-(2-aminocyclopropyl)phenyl)carbamoyl)-2-(phenylthio)phenyl)carbamate hydrochloride]	21.4 ± 3.3 µM	23.2 ± 3.8 µM	0.073 ± 0.011 µM	–	–
NC1CC1c1ccc(NC(=O)c2ccccc2NC(=O)OCc2ccccc2)cc1 (centres unmarked) [3j, Benzyl (2-((4-(2-aminocyclopropyl)phenyl)carbamoyl)phenyl)carbamate hydrochloride]	8.2 ± 1.2 µM	8.1 ± 0.9 µM	0.146 ± 0.022 µM	–	inhibition at 100 µM (human MAO A): 72%; inhibition at 100 µM (human MAO B [3]): 17%
Cl.NC1CC1c1ccc(NC(=O)c2ccc(Br)cc2NC(=O)OCc2ccccc2)cc1 (centres unmarked) [3k, Benzyl (2-((4-(2-aminocyclopropyl)phenyl)carbamoyl)-5-bromophenyl)carbamate hydrochloridrate]	–	–	–	0.159 ± 0.034 µM	% inhibition at 100 μM MAO A (human MAO A): 94%; IC50 (MV4–11 AML cells [1]): 6.2 ± 0.7 µM; IC50 (NB4 APL cells [2]): 9.3 ± 1 µM
NC1CC1c1ccc(NC(=O)c2ccc(-c3ccccc3)cc2NC(=O)OCc2ccccc2)cc1 (centres unmarked) [3l, Benzyl (4-((4-(2-aminocyclopropyl)phenyl)carbamoyl)-[1,1’-biphenyl]-3-yl)carbamate hydrochloride]	8.1 ± 1 µM	7.6 ± 0.8 µM	0.135 ± 0.029 µM	–	–
NC1CC1c1ccc(NC(=O)c2cc(NC(=O)c3ccccc3)ccc2OCC(=O)Nc2ccccc2)cc1 (centres unmarked) [3m, N-(4-(2-aminocyclopropyl)phenyl)-5-benzamido-2-(2-oxo-2-(phenylamino)ethoxy)benzamide hydrochloride]	5.6 ± 1.1 µM	5.5 ± 1.4 µM	3.9 ± 0.2 µM	–	–
NC1CC1c1ccc(NC(=O)c2cc(NC(=O)c3ccccc3)ccc2OCC(=O)NCc2ccccc2)cc1 (centres unmarked) [3n, N-(4-(2-aminocyclopropyl)phenyl)-5-benzamido-2-(2-(benzylamino)-2-oxoethoxy)benzamide]	3.3 ± 0.6 µM	3.8 ± 0.8 µM	1.7 ± 0.05 µM	–	–
CNC1CC1c1ccccc1 (centres unmarked) [4a, N-methyl-TCP]	–	–	–	10.8 ± 1.1 µM	LSD1/CoREST potency relative to TCP (fold less effective) [7]: same potency of TCP
CN(C)C1CC1c1ccccc1 (centres unmarked) [4b, N,N-dimethyl-TCP]	–	–	–	56.2 ± 7.8 µM	LSD1/CoREST potency relative to TCP (fold less effective) [7]: 5 fold
NC(=O)C1CC1c1ccccc1 (centres unmarked) [4c, 2-Phenylcyclopropane-1-carboxamide]	–	–	–	> 100 µM	–
NNC(=O)C1CC1c1ccccc1 (centres unmarked) [4d, 2-phenylcyclopropane-1-carbohydrazide]	–	–	–	> 100 µM	–
NC1(c2ccccc2)CC1 [4e, 1-Phenylcyclopropan-1-amine hydrochloride]	–	–	–	> 100 µM	–
NC1(c2ccc(NC(=O)C(Cc3ccccc3)NC(=O)OCc3ccccc3)cc2)CC1 (centres unmarked) [4f, Benzyl (1-((4-(1-aminocyclopropyl)-phenyl)-amino)-1-oxo-3-phenylpropan-2-yl)-carbamate hydrochloride]	–	–	–	> 100 µM	–
NC(=O)C1(c2ccccc2)CC1 [4g, 1-Phenylcyclopropane-1-carboxamide]	–	–	–	> 100 µM	–
NCC1(c2ccccc2)CC1 [4h, (1-phenylcyclopropyl)methanamine]	–	–	–	> 100 µM	–
NN1CC1c1ccccc1 (centres unmarked) [4i, 2-phenylaziridin-1-amine]	–	–	–	> 100 µM	–
